Tests used:
[1] = Lipid nanoparticle size and polydispersity index by dynamic light scattering (Malvern Zetasizer); format: physicochemical; conditions: hEPO mRNA LNP, Process A, Cationic Lipid:DMG-PEG2000:Cholesterol:DOPE 40:1.5:28.5:30 mol %, N/P 4
Description: The lipid nanoparticles in the examples of the present invention were formulated using Process A of WO 2018/089801 (see, e.g., Example 1 and FIG. 1 of WO 2018/089801). Process A (“A”) relates to a conventional method of encapsulating mRNA by mixing mRNA with a mixture of lipids, without first pre-forming the lipids into lipid nanoparticles. In an exemplary process, an ethanolic solution of a mixture of lipids (cationic lipid, phosphatidylethanolamine, cholesterol, and polyethylene glycol-lipid) at a fixed lipid to mRNA ratio were combined with an aqueous buffered solution of target mRNA at an acidic pH under controlled conditions to yield a suspension of uniform LNPs. After ultrafiltration and diafiltration into a suitable diluent system, the resulting nanoparticle suspensions were diluted to final concentration, filtered, and stored frozen at −80° C. until use.
(§1) Lipid nanoparticle formulations of Table 1 were prepared by Process A. All of the lipid nanoparticle formulations comprised hEPO mRNA and the different lipids (Cationic Lipid: DMG-PEG2000: Cholesterol: DOPE) in mol % ratios of 40:1.5:28.5:30 (Cationic Lipid: DMG-PEG2000: Cholesterol: DOPE).
The Polydispersity Index (Pdl) of lipid nanoparticles can be determined by diluting the formulation in 10% trehalose at about 0.1 mg/ml mRNA concentration and then measuring the size on Malvern zetasizer. The lipid nanoparticle size can be obtained with Malvern Zetasizer Nano-ZS.
Dynamic light scattering (DLS) measurements were performed using a Malvern Instruments Zetasizer with a backscattering detector angle of 173° and a 4-mW, 633-nm He—Ne laser (Worcestershire, UK). The samples were analyzed by diluting in 10% Trehalose and measuring the size and Poly dispersity Index (PDI) in an optical grade polystyrene cuvette.

BALB/cJ mice = test: Delivery of hEPO mRNA by intramuscular administration of LNPs; serum hEPO by ELISA; format: in vivo, Mouse; conditions: for hEPO 6 Hr (ng/ml) Mean: Table 2, isosorbide-derived lipids; for hEPO 6 Hr (ng/ml) Mean / hEPO 6 Hr (ng/mL) Mean: mouse serum 6 hours post single IM injection of 0.1 μg hEPO mRNA LNP; for hEPO 6 Hr (ng/mL) Mean / hEPO 24 Hr (ng/ml) Mean: Table 3, isomannide-derived lipids; for hEPO 24 Hr (ng/ml) Mean: mouse serum 24 hours post single IM injection of 0.1 μg hEPO mRNA LNP
Description: In summary, lipid screening studies were conducted with female BALB/cJ mice 6-8 weeks of age. Mice were dosed with 0.1 μg in 30 μL of LNPs by a single intramuscular (IM) injection into the gastrocnemius leg muscle. Blood samples were taken 6 and 24 hours post injection and hEPO levels were measured in the blood serum of the mice using an ELISA assay according to the manufacture's protocol.
Treatment Regimen: On Day 1, animals from Groups 1-33 were dosed via intramuscular injection while under light isoflurane anesthesia according to the study design table above. Animals in Groups 1-33 were injected with EPO mRNA LNPs in the right leg only. Groups 1 and 17 animals received MC3 control.
Interim Sample Collections: Interim whole blood (^~50 μL) was collected by tail snip or saphenous vein at 6 and 24 hours post dose administration (±5%). Blood samples were collected into serum separator tubes, allowed to clot at room temperature for at least 10 minutes, centrifuged at ambient temperature at minimum 1000 g for 10 minutes and the serum was extracted. All serum samples were stored at nominally −70° C. until analysis hEPO by the Testing Facility. The results of the EPO analysis were included in the Data Submission.
Terminal Blood Collections: Whole blood was collected via cardiac puncture into serum separator tube, allowed to clot at room temperature for at least 10 minutes, centrifuged at ambient temperature at minimum 1000 g for 10 minutes and the serum was extracted. Serum samples were stored at nominally −70° C. until analyzed for hEPO by the Test Facility.
ELISA Assay: Human erythropoietin (hEPO) levels in sera samples were determined by ELISA kit (R&D systems, Cat #DEP-00) according to the manufactory instruction and the results were included in the Data Submission. The “shaker” protocol was used. The serum samples were diluted between 1:40 and 1:100.

[2] = mRNA encapsulation efficiency of lipid nanoparticles (RiboGreen assay); format: physicochemical; conditions: hEPO mRNA LNP, Process A, Cationic Lipid:DMG-PEG2000:Cholesterol:DOPE 40:1.5:28.5:30 mol %, N/P 4
Description: In embodiments, the lipid nanoparticle encapsulates a nucleic acid, optionally an mRNA encoding a peptide or protein. In embodiments, the lipid nanoparticle encapsulates an mRNA encoding a peptide or protein, optionally for use in a vaccine. In embodiments, the peptide is an antigen. As used herein, the phrase “encapsulation percentage” refers to the fraction of therapeutic agent (e.g. mRNA) that is effectively encapsulated within a liposomal-based vehicle (e.g. a lipid nanoparticle) relative to the initial fraction of therapeutic agent present in the lipid phase. In embodiments, the lipid nanoparticles have an encapsulation percentage for mRNA of at least 50%. In embodiments, the lipid nanoparticles have an encapsulation percentage for mRNA of at least 55%. In embodiments, the lipid nanoparticles have an encapsulation percentage for mRNA of at least 60%. In embodiments, the lipid nanoparticles have an encapsulation percentage for mRNA of at least 65%. In embodiments, the lipid nanoparticles have an encapsulation percentage for mRNA of at least 70%. In embodiments, the lipid nanoparticles have an encapsulation percentage for mRNA of at least 75%. In embodiments, the lipid nanoparticles have an encapsulation percentage for mRNA of at least 80%. In embodiments, the lipid nanoparticles have an encapsulation percentage for mRNA of at least 85%. In embodiments, the lipid nanoparticles have an encapsulation percentage for mRNA of at least 90%. In embodiments, the lipid nanoparticles have an encapsulation percentage for mRNA of at least 95%. In embodiments, the encapsulation percentage is calculated by performing the Ribogreen assay (Invitrogen) with and without the presence of 0.1% Triton-X 100.
as §1
The RiboGreen Assay is a fluorescence-based method for the determination of mRNA concentration (Total and Free) and % encapsulation using Quant-iT™ RiboGreen® RNA reagent in mRNA containing lipid nanoparticles.
• To each of the standards (Blank, mRNA-1, mRNA-2. mRNA-3, mRNA-4, mRNA-5) and Samples (free mRNA and total mRNA), add 1.0 mL of 200-fold Ribogreen Reagent Solution and gently mix by inversion. This is a 2× Dilution. • Add 200 μL of each standard and sample in triplicate using the reverse pipetting technique in a 96-well Costar Black with Clear Background Plate. Ensure no bubbles are present in the plate before the fluorescence reading. • Read the fluorescence signal using the below instrument parameters: • Read Type: Fluorescence, Bottom Read • Excitation: 485 nm; Cut-off: 515 nm; Emission: 530 nm • Plate Type: 96-well Costar Black with Clear Background
The average fluorescence from each calibration standard is plotted against the concentration to generate a linear calibration curve using the MS Excel software. The coefficient of determination (R^2) of calibration curve must be R^2>0.99.
[formula] • Where, • Y=average fluorescence value • m: slope • x: concentration (pg/mL) • c: y-intercept • Using the linear equation, calculate the concentration of free and total mRNA concentration in the test sample by replacing the y value in the equation with the average fluorescence value of each respective sample • Once the concentration is determined, the actual concentration in the sample can be back-calculated by multiplying the concentration in the test sample with the dilution factor (DF) as follows:
[formula] [formula] • Concentration of encapsulated mRNA can be determined by subtracting the concentration of free mRNA from the total mRNA. • % Encapsulation can then be calculated by taking the ratio of encapsulated mRNA over total mRNA and multiplying the result with 100.

Compound	Polydispersity Index (PDI) [1]	Size (nm) [1] [nm]	Encapsulation efficiency (EE) % [2] [%]	hEPO 6 Hr (ng/ml) Mean (BALB/cJ mice) [ng/mL]	hEPO 6 Hr (ng/mL) Mean (BALB/cJ mice) [ng/mL]	hEPO 24 Hr (ng/ml) Mean (BALB/cJ mice) [ng/mL]
CCCCCCCCCCCOC(=O)CCCC(O)CN(CCCC(=O)O[C@@H]1CO[C@H]2[C@@H]1OC[C@@H]2OC(=O)CCCN(CC(O)CCCCCCCCCC)CC(O)CCCCCCCCCC)CC(O)CCCCCC(=O)OC(CCCCCCCC)CCCCCCCC (stereo in doubt) [Compound 32]	0.2	94	94	33.2		
CCCCCCCCCCCCC(O)CN(CCCCC(=O)O[C@@H]1CO[C@H]2[C@@H]1OC[C@H]2OC(=O)CCCCN(CC(O)CCCCCCCCCCCC)CC(O)CCCCCCCCCCCC)CC(O)CCCCCCCCCCCC (stereo partly drawn) [Compound 5]	0.11	107	75		26.3	
CCCCCCCCCCCCCCC(O)CN(CCCC(=O)O[C@@H]1CO[C@H]2[C@@H]1OC[C@H]2OC(=O)CCCN(CC(O)CCCCCCCCCCCCCC)CC(O)CCCCCCCCCCCCCC)CC(O)CCCCCCCCCCCCCC (stereo partly drawn) [Compound 6]	0.16	114	99		40.9	
CCCCCCCCCCCOC(=O)CCCC(O)CN(CCCC(=O)O[C@@H]1CO[C@H]2[C@@H]1OC[C@H]2OC(=O)CCCN(CC(O)CCCCCCCCCC)CC(O)CCCCCCCCCC)CC(O)CCCCCC(=O)OC(CCCCCCCC)CCCCCCCC (stereo partly drawn) [Compound 9]	0.1	114	91		30.7	19.8
CCCCCCCCCCCOC(=O)CCCC(O)CN(CCCC(=O)O[C@@H]1CO[C@H]2[C@@H]1OC[C@H]2OC(=O)CCCN(CC(O)CCCCCC(=O)OC(CCCCCCCC)CCCCCCCC)CC(O)CCCC(=O)OCCCCCCCCCCC)CC(O)CCCCCC(=O)OC(CCCCCCCC)CCCCCCCC (stereo partly drawn) [Compound 11]	0.1	120	94		36	
CCCCCC/C=C\COC(=O)CCCCCC(O)CN(CCCC(=O)O[C@@H]1CO[C@H]2[C@@H]1OC[C@H]2OC(=O)CCCN(CC(O)CCCCCCCCCC)CC(O)CCCCCCCCCC)CC(O)CCCCCC(=O)OC/C=C\CCCCCC (stereo partly drawn) [Compound 15]	0.11	88	91		22.8	
CCCCCC/C=C\COC(=O)CCCCCC(O)CN(CCCC(=O)O[C@@H]1CO[C@H]2[C@@H]1OC[C@H]2OC(=O)CCCN(CC(O)CCCCCC(=O)OC/C=C\CCCCCC)CC(O)CCCCCC(=O)OC/C=C\CCCCCC)CC(O)CCCCCC(=O)OC/C=C\CCCCCC (stereo partly drawn) [Compound 16]	0.11	84	77		9.4	
CCCCCCCCCCC(O)CN(CCCC(=O)O[C@@H]1CO[C@H]2[C@@H]1OC[C@H]2OC(=O)CCCN(CC(O)CCCCCC(=O)OC(CCCCCCCC)CCCCCCCC)CC1CCCC(=O)O1)CC(O)CCCCCCCCCC (stereo partly drawn) [Compound 19]	0.13	94	74		10.7	5.35

Continued, in another order:

Polydispersity Index (PDI) [1]	Size (nm) [1] [nm]	Encapsulation efficiency (EE) % [2] [%]	Compound	hEPO 6 Hr (ng/ml) Mean (BALB/cJ mice) [ng/mL]	hEPO 6 Hr (ng/mL) Mean (BALB/cJ mice) [ng/mL]	hEPO 24 Hr (ng/ml) Mean (BALB/cJ mice) [ng/mL]
0.14	93	85	CCCCCCCCC(O)CN(CCCC(=O)O[C@@H]1CO[C@H]2[C@@H]1OC[C@H]2OC(=O)CCCN(CC(O)CCCCCCCC)CC(O)CCCCCCCC)CC(O)CCCCCCCC (stereo partly drawn) [Compound 1]		42.5	
0.16	77	68	CCCCCCCCC(O)CN(CCCCC(=O)O[C@@H]1CO[C@H]2[C@@H]1OC[C@H]2OC(=O)CCCCN(CC(O)CCCCCCCC)CC(O)CCCCCCCC)CC(O)CCCCCCCC (stereo partly drawn) [Compound 2]		36.3	
0.16	78	94	CCCCCCCCCCC(O)CN(CCCCC(=O)O[C@@H]1CO[C@H]2[C@@H]1OC[C@H]2OC(=O)CCCCN(CC(O)CCCCCCCCCC)CC(O)CCCCCCCCCC)CC(O)CCCCCCCCCC (stereo partly drawn) [Compound 4]		43.2	
0.13	91	95	CCCCCCCCCCCCCCC(O)CN(CCCC(=O)O[C@@H]1CO[C@H]2[C@@H]1OC[C@H]2OC(=O)CCCCN(CC(O)CCCCCCCCCC)CC(O)CCCCCCCCCC)CC(O)CCCCCCCCCCCCCC (stereo partly drawn) [Compound 8]		25.7	
0.13	95	89	CCCCCCCCC(O)CN(CCCC(=O)O[C@H]1CO[C@H]2[C@@H]1OC[C@H]2OC(=O)CCCN(CC(O)CCCCCCCC)CC(O)CCCCCCCC)CC(O)CCCCCCCC (stereo partly drawn) [Compound 20]	25.2		
